The text below walks through data of patent US8507510B2, “Sulfoximine-substituted pyrimidines as CDK- and/or VEGF inhibitors, their production and use as pharmaceutical agents” (Bayer Intellectual Property GmbH, priority 2003, dated 2013).

Structures are written as SMILES.

One assay deals with MCF7. The assay is described as follows: Proliferation assay, MCF7. The conditions noted are these: MCF7 cells, 4 days, crystal violet. Type of assay: cell-based, human. The source says:
(§1) Cultivated human tumor cells (MCF7, […] human breast cancer cells, related to ATCC HTB22; NCI-H460, human non-small-cell lung cancer cells, ATCC HTB-177, HCT 116, human colon cancer cells, ATCC CCL-247; DU 145, hormone-independent human prostate cancer cells, ATCC HTB-81; MaTu-MDR, hormone-independent, multiple pharmaceutical agent-resistant human breast cancer cells, EPO-GmbH, Berlin) were flattened out at a density of about 5000 cells/measuring point, depending on the growth rate of the respective cells, in a 96-well multititer plate in 200 μl of the corresponding growth medium. After 24 hours, the cells of one plate (zero-point plate) were colored with crystal violet (see below), while the medium of the other plates was replaced by fresh culture medium (200 μl), to which the test substances were added in various concentrations (0 μm, as well as in the range of 0.01-30 μm; the final concentration of the solvent dimethyl sulfoxide was 0.5%). The cells were incubated for 4 days in the presence of test substances. The cell proliferation was determined by coloring the cells with crystal violet: the cells were fixed by adding 20 μl/measuring point of an 11% glutaric aldehyde solution for 15 minutes at room temperature. After three washing cycles of the fixed cells with water, the plates were dried at room temperature. The cells were colored by adding 100 μl/measuring point of a 0.1% crystal violet solution (the pH was set at 3 by adding acetic acid). After three washing cycles of the colored cells with water, the plates were dried at room temperature. The dye was dissolved by adding 100 μl/measuring point of a 10% acetic acid solution. The extinction was determined by photometry at a wavelength of 595 nm The change of cell growth, in percent, was calculated by normalization of the measured values to the extinction values of the zero-point plate (=0%) and the extinction of the untreated (0 μm) cells (=100%).

A further assay relates to H460. As to the kind of experiment: Proliferation assay, H460. Type of assay: cell-based, human. The conditions noted are these: H460 cells, 4 days, crystal violet.
Description: as §1

The subject of the next assay is DU145. The assay is described as follows: Proliferation assay, DU145. It counts as cell-based, human. The conditions noted are these: DU145 cells, 4 days, crystal violet.
Description: as §1

Another assay concerns MaTu-ADR. The assay is described as follows: Proliferation assay, MaTu-ADR. It counts as cell-based, human. To be noted: MaTu-ADR cells, 4 days, crystal violet.
Description: as §1

In a further assay the target is CDK1/CycB (Homo sapiens (Human), UniProt P06493). As to the kind of experiment: CDK1/CycB kinase assay. It counts as biochemical. To be noted: histone IIIS substrate, 0.5 μm ATP. The protocol:
Recombinant CDK1- and CycB-GST-fusion proteins, purified from baculovirus-infected insect cells (Sf9), were purchased from ProQinase GmbH, Freiburg. Histone IIIS, used as a kinase substrate, is available commercially from the Sigma Company.
The reaction was stopped by adding EDTA solution (250 mmol, pH 8.0, 14 μl/measuring point).
(§2) From each reaction batch, 10 μl was applied to P30 filter strips (Wallac Company), and non-incorporated 33P-ATP was removed by subjecting the filter strips to three washing cycles for 10 minutes each in 0.5% phosphoric acid. After the filter strips were dried for one hour at 70° C., the filter strips were covered with scintillator strips (MeltiLex™ A, Wallac Company) and baked for one hour at 90° C. The amount of incorporated 33P (substrate phosphorylation) was determined by scintillation measurement in a gamma-radiation measuring device (Wallac).

The next assay addresses VEGF-R2 (Homo sapiens (Human), UniProt P35968). As to the kind of experiment: VEGF receptor-2 kinase assay. It counts as biochemical. To be noted: poly-(Glu4Tyr) substrate, 8 μmol ATP. As to the method: Recombinant VEGF receptor tyrosine kinase-2 was purified as a GST fusion protein from baculovirus-infected insect cells (Sf9). Poly-(Glu4Tyr), which was used as a kinase substrate, was purchased by the Sigma Company.
VEGF receptor tyrosine kinase (90 ng/measuring point) was incubated for 10 minutes at 22° C. in the presence of various concentrations of test substances (0 μm, as well as within the range of 0.001-30 μm) in 30 μl of assay buffer [40 mmol of Tris/HCl, […], 10 mmol of MgCl2, 1 mmol of MnCl2, 3 μmol of Na ortho-vanadate, 1.0 mmol of dithiothreitol, 8 μmol of adenosine trisphosphate (ATP), 27 μg/measuring point of poly-(Glu4Tyr), 0.2 μCi/measuring point of 33P-gamma ATP, 1% dimethyl sulfoxide]. The reaction was stopped by adding EDTA solution (250 mmol, pH 7.0, 10 μl/measuring point).
as §2

Another assay concerns the target CDK2/CycE (Homo sapiens (Human), UniProt P24941). The assay is described as follows: CDK2/CycE kinase assay. It counts as biochemical. The conditions noted are these: histone IIIS substrate, 0.5 μm ATP. The protocol:
Recombinant CDK2- and CycE-GST-fusion proteins, purified from baculovirus-infected insect cells (Sf9), were purchased by ProQinase GmbH, Freiburg. Histone IIIs, which was used as a kinase substrate, was purchased by the Sigma Company.
CDK2/CycE (50 ng/measuring point) was incubated for 15 minutes at 22° C. in the presence of various concentrations of test substances (0 μm, as well as within the range of 0.01-100 μm) in assay buffer [50 mmol of tris/HCl, pH 8.0, 10 mmol of MgCl2, 0.1 mmol of Na ortho-vanadate, 1.0 mmol of dithiothreitol, 0.5 μm of adenosine triphosphate (ATP), 10 μg/measuring point of histone IIIS, 0.2 μCi/measuring point of ^33P-gamma ATP, 0.05% NP40, 12.5% dimethyl sulfoxide]. The reaction was stopped by adding EDTA solution (250 mmol, pH 8.0, 14 μl/measuring point).
From each reaction batch, 10 μl was applied to P30 filter strips (Wallac Company), and non-incorporated ^33P-ATP was removed by subjecting the filter strips to three washing cycles for 10 minutes each in 0.5% phosphoric acid. After the filter strips were dried for one hour at 70° C., the filter strips were covered with scintillator strips (MeltiLex™ A, Wallac Company) and baked for one hour at 90° C. The amount of incorporated ^33P (substrate phosphorylation) was determined by scintillation measurement in a gamma-radiation measuring device (Wallac).

Chain of VEGF-R2 (P35968 20-1356, species assumed): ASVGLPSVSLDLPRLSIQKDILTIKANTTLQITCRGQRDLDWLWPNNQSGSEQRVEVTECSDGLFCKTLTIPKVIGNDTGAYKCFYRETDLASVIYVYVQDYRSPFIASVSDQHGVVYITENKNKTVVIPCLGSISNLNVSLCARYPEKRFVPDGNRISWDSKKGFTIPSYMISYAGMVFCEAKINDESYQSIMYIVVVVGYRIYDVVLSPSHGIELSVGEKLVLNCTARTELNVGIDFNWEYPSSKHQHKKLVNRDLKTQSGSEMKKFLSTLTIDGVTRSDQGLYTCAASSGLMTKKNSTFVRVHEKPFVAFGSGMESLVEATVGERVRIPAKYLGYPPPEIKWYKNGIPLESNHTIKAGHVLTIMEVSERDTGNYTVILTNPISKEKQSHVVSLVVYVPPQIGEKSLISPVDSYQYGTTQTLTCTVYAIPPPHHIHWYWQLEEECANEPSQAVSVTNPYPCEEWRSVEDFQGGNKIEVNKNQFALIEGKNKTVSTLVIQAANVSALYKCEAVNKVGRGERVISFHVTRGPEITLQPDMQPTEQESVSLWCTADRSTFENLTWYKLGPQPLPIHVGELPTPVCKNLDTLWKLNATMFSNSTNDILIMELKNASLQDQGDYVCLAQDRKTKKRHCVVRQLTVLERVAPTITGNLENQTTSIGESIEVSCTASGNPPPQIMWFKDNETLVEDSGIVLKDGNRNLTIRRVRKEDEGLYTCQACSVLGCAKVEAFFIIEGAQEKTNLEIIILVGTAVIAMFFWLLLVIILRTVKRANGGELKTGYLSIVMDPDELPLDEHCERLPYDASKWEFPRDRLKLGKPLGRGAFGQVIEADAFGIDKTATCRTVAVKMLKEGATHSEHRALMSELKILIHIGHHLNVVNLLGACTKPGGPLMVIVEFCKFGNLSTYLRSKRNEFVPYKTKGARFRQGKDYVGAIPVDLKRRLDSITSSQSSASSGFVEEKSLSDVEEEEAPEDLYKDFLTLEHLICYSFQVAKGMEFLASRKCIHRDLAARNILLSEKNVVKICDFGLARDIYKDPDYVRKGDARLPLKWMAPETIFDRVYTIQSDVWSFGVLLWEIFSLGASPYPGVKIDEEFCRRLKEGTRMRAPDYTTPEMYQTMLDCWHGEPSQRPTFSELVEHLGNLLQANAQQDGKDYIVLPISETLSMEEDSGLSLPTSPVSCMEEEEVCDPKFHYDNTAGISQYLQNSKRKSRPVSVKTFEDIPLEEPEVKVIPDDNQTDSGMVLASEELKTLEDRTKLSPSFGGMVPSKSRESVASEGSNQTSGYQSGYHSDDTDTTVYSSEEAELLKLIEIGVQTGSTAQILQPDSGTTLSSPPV
Chain of CDK1/CycB (P06493 whole entry, the tested form may be a part): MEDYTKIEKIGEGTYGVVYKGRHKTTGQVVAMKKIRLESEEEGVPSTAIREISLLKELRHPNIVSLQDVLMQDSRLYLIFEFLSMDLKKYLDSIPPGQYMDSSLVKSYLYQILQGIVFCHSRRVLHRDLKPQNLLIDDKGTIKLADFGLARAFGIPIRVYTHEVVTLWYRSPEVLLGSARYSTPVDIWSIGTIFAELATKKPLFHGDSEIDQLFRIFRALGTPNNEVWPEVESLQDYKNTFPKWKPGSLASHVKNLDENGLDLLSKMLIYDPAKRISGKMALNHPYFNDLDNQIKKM
Chain of CDK1/CycB (P14635 whole entry partner, the tested form may be a part): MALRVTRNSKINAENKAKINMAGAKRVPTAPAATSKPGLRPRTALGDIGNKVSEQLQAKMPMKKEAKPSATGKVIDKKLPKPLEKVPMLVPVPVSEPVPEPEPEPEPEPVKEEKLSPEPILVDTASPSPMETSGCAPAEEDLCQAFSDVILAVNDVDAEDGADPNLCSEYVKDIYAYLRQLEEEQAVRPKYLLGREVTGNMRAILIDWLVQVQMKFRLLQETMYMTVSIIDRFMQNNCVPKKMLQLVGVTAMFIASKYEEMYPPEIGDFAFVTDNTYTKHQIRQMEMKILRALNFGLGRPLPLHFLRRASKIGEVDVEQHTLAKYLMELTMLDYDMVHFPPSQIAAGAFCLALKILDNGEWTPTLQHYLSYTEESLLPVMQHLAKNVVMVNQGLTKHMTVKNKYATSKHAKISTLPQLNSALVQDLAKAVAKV

Turning to `Cc1cc(Nc2ncc(Br)c(N[C@H](C)C(C)(C)O)n2)ccc1S(C)(=N)=O` (mixture of isomers) [Example 1.58, (RS)-S-[4-({5-bromo-4-[(R)-(2-hydroxy-1,2-dimethylpropyl)amino]pyrimidin-2-yl}amino)-2-methylphenyl]-S-methyl sulfoximide], the IC50 – broadly, the concentration that inhibits the measured activity by half – in the assay on MCF7 is 60 nM; in the assay on H460 it was 30 nM; with DU145, 30 nM; with MaTu-ADR, 40 nM.

Regarding `CCS(=N)(=O)c1ccc(Nc2ncc(Br)c(N[C@H](COC)[C@@H](C)O)n2)cc1` (mixture of isomers) [Example 1.49, (RS)-S-{4-[(5-bromo-4-{[(1R,2R)-2-hydroxy-1-(methoxymethyl)-propyl]amino}pyrimidin-2-yl)amino]phenyl}-S-ethyl sulfoximide], the half-inhibitory concentration (IC50) in the assay on MCF7 is 300 nM; with H460 it was 400 nM; with DU145, 300 nM; in the assay on MaTu-ADR, 600 nM.

For the compound `COC[C@@H](Nc1nc(Nc2ccc(S(C)(=N)=O)cc2)ncc1Br)[C@@H](C)O` (mixture of isomers) [Example 1.46, (RS)-S-{4-[(5-bromo-4-{[(1R,2R)-2-hydroxy-1-(methoxymethyl)-propyl]amino}pyrimidin-2-yl)amino]phenyl}-S-methyl sulfoximide], the half-maximal inhibitory concentration (IC50) in the assay with MCF7 (Homo sapiens, MCF7, 96 h) was 200 nM; in the assay with H460 (Homo sapiens, NCI-H460, 96 h), 110 nM; in the assay with DU145 (Homo sapiens, DU-145, 96 h), 170 nM; in the assay with MaTu-ADR (Homo sapiens, 96 h) it was 200 nM.

In the case of `C[C@@H](Nc1nc(Nc2ccc(S(=N)(=O)CCO)cc2)ncc1Br)C(C)(C)O` (single isomer, unassigned) [Example 1.15], the IC50 with MCF7 (Homo sapiens, MCF7, 96 h) turned out to be 180 nM; in the assay on H460 (Homo sapiens, NCI-H460, 96 h), 200 nM; in the assay with DU145 (Homo sapiens, DU-145, 96 h), 300 nM; in the assay with MaTu-ADR (Homo sapiens, 96 h) it was 300 nM; on CDK1/CycB, 25 nM; at VEGF-R2, 59 nM.

Regarding `Cc1cc(Nc2ncc(Br)c(N[C@H](C)C(C)(C)O)n2)ccc1S(C)(=N)=O` (single isomer, unassigned) [Example 1.59], the concentration for half-maximal inhibition (IC50) in the assay with MCF7 (Homo sapiens, MCF7, 96 h) was 110 nM; in the assay on H460 (Homo sapiens, NCI-H460, 96 h) it was < 100 nM; in the assay with DU145 (Homo sapiens, DU-145, 96 h) it was < 100 nM; in the assay with MaTu-ADR (Homo sapiens, 96 h) it was < 100 nM.

In the case of `C[C@@H](Nc1nc(Nc2ccc(S(C)(=N)=O)cc2)ncc1Br)C(C)(C)O` (single isomer, unassigned) [Example 1.42], the IC50 in the assay on MCF7 (Homo sapiens, MCF7, 96 h) is 150 nM; in the assay with H460 (Homo sapiens, NCI-H460, 96 h), < 100 nM; in the assay with DU145 (Homo sapiens, DU-145, 96 h) it was 170 nM; in the assay with MaTu-ADR (Homo sapiens, 96 h), < 100 nM.

Turning to `C[C@@H](Nc1nc(Nc2ccc(S(=N)(=O)CCO)cc2)ncc1Br)C(C)(C)O` (mixture of isomers) [Example 1.14, (RS)-S-[4-({5-bromo-4-[(R)-(2-hydroxy-1,2-dimethylpropyl)amino]pyrimidin-2-yl}amino)phenyl]-S-(2-hydroxyethyl)-sulfoximide], the IC50 in the assay with DU145 (Homo sapiens, DU-145, 96 h) is 90 nM; with MaTu-ADR (Homo sapiens, 96 h) it was 110 nM.

As for `COC[C@@H](Nc1nc(Nc2ccc(S(C)(=N)=O)cc2)ncc1Br)[C@@H](C)O` (single isomer, unassigned) [Example 1.47], the IC50 was 600 nM in the assay with MCF7 (Homo sapiens, MCF7, 96 h); 600 nM in the assay on H460 (Homo sapiens, NCI-H460, 96 h); 600 nM with DU145 (Homo sapiens, DU-145, 96 h); 800 nM with MaTu-ADR (Homo sapiens, 96 h); 6 nM on CDK2/CycE.

In the case of `CCS(=N)(=O)c1ccc(Nc2ncc(Br)c(N[C@H](C)C(C)(C)O)n2)cc1` (mixture of isomers) [Example 1.55, (RS)-S-[4-({5-bromo-4-[(R)-(2-hydroxy-1,2-dimethylpropyl)amino]pyrimidin-2-yl}amino)phenyl]-S-ethyl sulfoximide], the half-maximal inhibitory concentration (IC50) in the assay on MCF7 was found to be 300 nM; in the assay on H460, 300 nM; in the assay with DU145 it was 300 nM; in the assay on MaTu-ADR, 150 nM.

Consider `Cc1cc(Nc2ncc(Br)c(N[C@H](C)C(C)(C)O)n2)ccc1S(C)(=N)=O` (mixture of isomers) [Example 1.57, (RS)—S-[4-({5-bromo-4-[(R)-(2-hydroxy-1,2-dimethylpropyl)amino]pyrimidin-2-yl}amino)-2-methylphenyl]-S-methyl sulfoximide], for which the half-maximal inhibitory concentration (IC50) in the assay with H460 amounted to 120 nM; in the assay with DU145 it was 110 nM; in the assay on MaTu-ADR it was 90 nM.

Turning to `CCS(=N)(=O)c1ccc(Nc2ncc(Br)c(N[C@H](C)[C@@H](C)O)n2)cc1` (single isomer, unassigned) [Example 1.53], the IC50 with MCF7 (Homo sapiens, MCF7, 96 h) was determined as 300 nM; on CDK2/CycE it was 4 nM.
